Data reported in ChEMBL document CHEMBL5233271, “Discovering the Mechanisms of Wikstroelide E as a Potential HIV-Latency-Reversing Agent by Transcriptome Profiling” (J Nat Prod, 2021).
The source made the active and inactive calls. The rule behind the calls is not given here.

Assays:
[1] = tested on: J-Lat Tat-GFP Clone A2; test: Upregulation of CLIC1 gene expression in human J-Lat Tat-GFP Clone A2 cells at 10 nM measured after 6 hrs by transcriptome analysis; type: functional, cell-based
[2] = tested on: J-Lat Tat-GFP Clone A2; test: Upregulation of CORO1A gene expression in human J-Lat Tat-GFP Clone A2 cells at 10 nM measured after 6 hrs by transcriptome analysis; type: functional, cell-based
[3] = tested on: J-Lat Tat-GFP Clone A2; test: Upregulation of DDRGK1 gene expression in human J-Lat Tat-GFP Clone A2 cells at 10 nM measured after 6 hrs by transcriptome analysis; type: functional, cell-based
[4] = tested on: J-Lat Tat-GFP Clone A2; test: Upregulation of DGKA gene expression in human J-Lat Tat-GFP Clone A2 cells at 10 nM measured after 6 hrs by transcriptome analysis; type: functional, cell-based
[5] = tested on: J-Lat Tat-GFP Clone A2; test: Upregulation of FMNL1 gene expression in human J-Lat Tat-GFP Clone A2 cells at 10 nM measured after 6 hrs by transcriptome analysis; type: functional, cell-based
[6] = tested on: J-Lat Tat-GFP Clone A2; test: Upregulation of HSP90B1 gene expression in human J-Lat Tat-GFP Clone A2 cells at 10 nM measured after 6 hrs by transcriptome analysis; type: functional, cell-based
[7] = tested on: J-Lat Tat-GFP Clone A2; test: Upregulation of SACM1L gene expression in human J-Lat Tat-GFP Clone A2 cells at 10 nM measured after 6 hrs by transcriptome analysis; type: functional, cell-based
[8] = tested on: J-Lat Tat-GFP Clone A2; test: Downregulation of ADI1 gene expression in human J-Lat Tat-GFP Clone A2 cells at 10 nM measured after 6 hrs by transcriptome analysis; type: functional, cell-based
[9] = tested on: J-Lat Tat-GFP Clone A2; test: Downregulation of ARID4B gene expression in human J-Lat Tat-GFP Clone A2 cells at 10 nM measured after 6 hrs by transcriptome analysis; type: functional, cell-based
[10] = tested on: J-Lat Tat-GFP Clone A2; test: Downregulation of CCNB1 gene expression in human J-Lat Tat-GFP Clone A2 cells at 10 nM measured after 6 hrs by transcriptome analysis; type: functional, cell-based
[11] = tested on: J-Lat Tat-GFP Clone A2; test: Downregulation of CHEK1 gene expression in human J-Lat Tat-GFP Clone A2 cells at 10 nM measured after 6 hrs by transcriptome analysis; type: functional, cell-based
[12] = tested on: J-Lat Tat-GFP Clone A2; test: Downregulation of CNBP gene expression in human J-Lat Tat-GFP Clone A2 cells at 10 nM measured after 6 hrs by transcriptome analysis; type: functional, cell-based
[13] = tested on: J-Lat Tat-GFP Clone A2; test: Downregulation of FLNB gene expression in human J-Lat Tat-GFP Clone A2 cells at 10 nM measured after 6 hrs by transcriptome analysis; type: functional, cell-based
[14] = tested on: J-Lat Tat-GFP Clone A2; test: Downregulation of IKBKG gene expression in human J-Lat Tat-GFP Clone A2 cells at 10 nM measured after 6 hrs by transcriptome analysis; type: functional, cell-based
[15] = tested on: J-Lat Tat-GFP Clone A2; test: Downregulation of INTS10 gene expression in human J-Lat Tat-GFP Clone A2 cells at 10 nM measured after 6 hrs by transcriptome analysis; type: functional, cell-based
[16] = tested on: J-Lat Tat-GFP Clone A2; test: Downregulation of LRSAM1 gene expression in human J-Lat Tat-GFP Clone A2 cells at 10 nM measured after 6 hrs by transcriptome analysis; type: functional, cell-based
[17] = tested on: J-Lat Tat-GFP Clone A2; test: Downregulation of PRKCQ gene expression in human J-Lat Tat-GFP Clone A2 cells at 10 nM measured after 6 hrs by transcriptome analysis; type: functional, cell-based
[18] = tested on: NH2; test: Activation of NFkappaB signalling pathway in human NH2 cells assessed as increase in IkappaBalpha phosphorylation measured after 1 hr by Western blot analysis; type: cell-based; conditions: filed as activator, dose 0-80 nM
[19] = tested on: J-Lat Tat-GFP Clone A2; test: Activation of NFkappaB signalling pathway in human J-Lat Tat-GFP Clone A2 cells assessed as increase in IkappaBalpha phosphorylation measured after 1 hr by Western blot analysis; type: cell-based; conditions: filed as activator, dose 0-80 nM
[20] = tested on: NH2; test: Activation of NFkappaB signalling pathway in human NH2 cells assessed as increase in IkappaBalpha phosphorylation at 40 nM by Western blot analysis; type: cell-based; conditions: filed as activator, time 5-120 min, TDE = time-dependent effect
[21] = tested on: J-Lat Tat-GFP Clone A2; test: Activation of NFkappaB signalling pathway in human J-Lat Tat-GFP Clone A2 cells assessed as increase in IkappaBalpha phosphorylation at 40 nM by Western blot analysis; type: cell-based; conditions: filed as activator, time 5-120 min, TDE = time-dependent effect
[22] = tested on: Human immunodeficiency virus; test: HIV-latency reversing activity in human NH2 cells at 10 nM pretreated with BAY11-7082 for 1 hr followed by compound addition and measured after 12 hrs by luciferase based assay; type: functional, organism-based
[23] = tested on: NH2; test: Activation of NFkappaB signalling pathway in human NH2 cells assessed as increase in translocation of p65 from cytoplasm to nucleus at 40 nM pretreated with PKC inhibitor, Go6983 for 1 hr followed by compound addition and measured after 12 hrs by Western blot analysis; type: cell-based
[24] = tested on: Human immunodeficiency virus; test: HIV-latency reversing activity in human NH2 cells at 10 nM pretreated with JAK inhibitor, -decernotinib for 1 hr followed by compound addition and measured after 12 hrs by luciferase based assay; type: functional, organism-based
[25] = Cytotoxicity against human J-Lat 2D10 cells at 1 uM incubated for 72 hrs; type: toxicity, cell-based
[26] = Cytotoxicity against human NH1 cells at 1 uM incubated for 72 hrs; type: toxicity, cell-based; conditions: nh1, 72 h
[27] = Cytotoxicity against human NH2 cells at 1 uM incubated for 72 hrs; type: toxicity, cell-based; conditions: nh2, 72 h

C=C(C)[C@]12C[C@@H](C)[C@@]34O[C@]5(CCCCCCC[C@H](C)[C@H]6[C@H](C)C(=O)[C@@](O)([C@H](O)[C@@]7(CO)O[C@H]7[C@H]3[C@H]1O5)[C@@H]64)O2
Activity [1]: Active | Activity [2]: Active | Activity [3]: Active | Activity [4]: Active | Activity [5]: Active | Activity [6]: Active | Activity [7]: Active | Activity [8]: Active | Activity [9]: Active | Activity [10]: Active | Activity [11]: Active | Activity [12]: Active | Activity [13]: Active | Activity [14]: Active | Activity [15]: Active | Activity [16]: Active | Activity [17]: Active | Activity [18]: Dose-Dependent Effect | Activity [19]: Dose-Dependent Effect | Activity [20]: Tde | Activity [21]: Tde | Activity [22]: inactive | Activity [23]: inactive | Activity [24]: inactive | Activity [25]: Non-Toxic | Activity [26]: Non-Toxic | Activity [27]: Non-Toxic
